Data on 21 molecules can be found in US11555036B2, “FGFR4 inhibitor, preparation method therefor and pharmaceutical use thereof” (Abbisko Therapeutics Co., Ltd., priority 2016, dated 2023).

One may read the IC50 as the concentration at which inhibition is half-maximal. As a reminder, the EC50 is the concentration giving half of the maximal effect. A low value points to higher potency in that assay.

In assay [1] the target is FGFR4 (Homo sapiens, UniProt P22455). Kind of assay: FGFR4 Caliper Assay (in vitro biochemical kinase analysis of FGFR4). As to conditions: read-out: Enzymatic activity FGFR4 IC50. In outline: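 Kinase reaction at 30° C for 40 min in 50 mM HEPES pH 7.5, 16 mM MgCl2, 1 mM DTT, 0.6% DMSO, stopped with EDTA. Phosphorylated and unphosphorylated fluorescent peptides separated by Caliper microfluidic mobility shift. IC50 by non-linear regression of percent inhibition.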
FGFR4, sequence (P22455 22-802): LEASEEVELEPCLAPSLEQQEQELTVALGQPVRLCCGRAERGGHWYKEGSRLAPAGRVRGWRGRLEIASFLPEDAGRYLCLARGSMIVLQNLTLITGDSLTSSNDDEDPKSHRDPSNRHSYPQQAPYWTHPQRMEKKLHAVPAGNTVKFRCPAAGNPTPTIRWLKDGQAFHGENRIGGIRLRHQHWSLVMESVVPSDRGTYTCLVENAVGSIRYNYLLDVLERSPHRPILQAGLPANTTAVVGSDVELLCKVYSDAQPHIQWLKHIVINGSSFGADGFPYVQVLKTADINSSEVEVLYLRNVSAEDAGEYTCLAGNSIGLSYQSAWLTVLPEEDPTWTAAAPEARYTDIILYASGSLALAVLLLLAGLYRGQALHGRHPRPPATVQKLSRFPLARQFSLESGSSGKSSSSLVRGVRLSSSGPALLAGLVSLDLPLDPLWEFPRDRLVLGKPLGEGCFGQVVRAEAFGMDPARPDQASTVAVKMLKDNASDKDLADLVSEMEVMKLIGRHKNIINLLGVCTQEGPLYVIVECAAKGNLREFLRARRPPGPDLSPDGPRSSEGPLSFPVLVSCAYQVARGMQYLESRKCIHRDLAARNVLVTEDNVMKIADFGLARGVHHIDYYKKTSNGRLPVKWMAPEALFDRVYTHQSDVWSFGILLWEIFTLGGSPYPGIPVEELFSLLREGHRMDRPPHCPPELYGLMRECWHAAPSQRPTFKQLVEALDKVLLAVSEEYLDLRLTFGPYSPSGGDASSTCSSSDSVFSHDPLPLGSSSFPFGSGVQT

The subject of assay [2] is Huh7 hepatocellular carcinoma cells. Kind of assay: FGFR4 cell proliferation experiment, Cell Titer Glo (CTG). As to conditions: Homo sapiens, Huh-7, 72 h, HuH-7 cells, 3 days; for IC50: concentration leading to absolute half growth inhibition; for EC50: concentration leading to half maximal growth inhibition. The class given is cell-based. Summed up: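 Cells treated with 5-fold serial dilutions starting at 10 μM for 3 days at 37° C, 5% CO2. Proliferation/survival quantified as cellular ATP by CellTiter-Glo luminescence.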
A general note: In ATP-based viability assays light output follows the ATP content of the culture.

For `C=CC(=O)N[C@H]1COC[C@H]1Nc1ncc2cc(-c3c(Cl)c(OC)cc(OC)c3Cl)ncc2n1` (racemic) [Example 118, (±)—N-((3R,4S)-4-((6-(2,6-dichloro-3,5-dimethoxyphenyl)pyrido[3,4-d]pyrimidin-2-yl)amino)tetrahydrofuran-3-yl)acrylamide], the IC50 in assay [1] was 80.5 nM; in assay [2], 333 nM. The molecule also had an EC50 in assay [2] of 179 nM.
As for `C=CC(=O)Nc1cnn(CCOC)c1-c1cc2cnc(-c3c(Cl)c(OC)cc(OC)c3Cl)cc2cn1` [Example 723, N-(5-(7-(2,6-dichloro-3,5-dimethoxyphenyl)-2,6-naphthyridin-3-yl)-1-(2-methoxyethyl)-1H-pyrazol-4-yl)acrylamide], the results for the IC50 in assay [1] and in assay [2] were 78.5 nM and 1210 nM, respectively. In assay [2], the EC50 is 338 nM.
As for `C=CC(=O)N[C@H]1COC[C@H]1Nc1ncc2cc(-c3c(Cl)c(OC)cc(OC)c3Cl)nc(N3CCC(OC)CC3)c2n1` [Example 693, N-((3R,4S)-4-((6-(2,6-dichloro-3,5-dimethoxyphenyl)-8-(4-methoxy-piperidin-1-l)pyrido[3,4-d]pyrimidin-2-yl)amino)tetrahydrofuran-3-yl)acryl-amide], the IC50 in assay [1] was found to be 5.6 nM. In assay [2], the midpoint of inhibition, the IC50, lay at 2.1 nM and the EC50 came to 1.3 nM.
With `C=CC(=O)N[C@H]1COC[C@H]1Nc1cc2c(NCC3CC3)nc(-c3c(Cl)c(OC)cc(OC)c3Cl)cc2cn1` [Example 126, N-((3R,4S)-4-((5-((cyclopropylmethyl)amino)-7-(2,6-dichloro-3,5-dimethoxy-phenyl)-2,6-naphthyridin-3-yl)amino)tetrahydrofuran-3-yl)acrylamide], in assay [1], the IC50 is 22 nM. Also, in assay [2], the IC50 was 53.7 nM and the response was half-maximal at 31.5 nM (EC50).
In the case of `C=CC(=O)N[C@H]1COC[C@H]1Nc1ncc2cc(-c3c(Cl)c(OC)cc(OC)c3Cl)nc(NC[C@@H]3CCCO3)c2n1` [Example 438B, N-((3R,4S)-4-((6-(2,6-dichloro-3,5-di-methoxyphenyl)-8-((((S)-tetrahydro-furan-2-yl)methyl)amino)pyrido[3,4-d]pyrimidin-2-yl)amino)tetrahydro-furan-3-yl)acrylamide], the IC50 in assay [1] was 9.1 nM. In assay [2], the IC50 was found to be 35.1 nM and a half-maximal response (EC50) required 15.8 nM.
Regarding `C=CC(=O)N[C@H]1CCOC[C@H]1Nc1ncc2cc(-c3c(F)c(OC)cc(OC)c3F)nc(N3CC(C)(O)C3)c2n1` [Example 793, N-((3S,4S)-3-((6-(2,6-difluoro-3,5-dimethoxyphenyl)-8-(3-hydroxy-3-methylazetidin-1-yl)pyrido[3,4-d]py-rimidin-2-yl)amino)tetrahydro-2H-pyran-4-yl)acrylamide], the IC50 is 5.3 nM in assay [1] and 9.9 nM in assay [2]. This molecule also yielded an EC50 in assay [2] of 7.9 nM.
Turning to `C=CC(=O)N[C@H]1COC[C@H]1Nc1ncc2cc(-c3c(Cl)c(OC)cc(OC)c3Cl)nc(N3CC4(COC4)C3)c2n1` [Example 668, N-((3R,4S)-4-((6-(2,6-dichloro-3,5-dimethoxyphenyl)-8-(2-oxa-6-aza-spiro[3.3]heptan-6-yl)pyrido[3,4-d]py-rimidin-2-yl)amino)tetrahydrofuran-3-yl)acrylamide], the IC50 was determined as 14.7 nM in assay [1] and 22.6 nM in assay [2]. The EC50 in assay [2] was 16 nM.
The matching figures for `C=CC(=O)N[C@H]1COC[C@H]1Nc1ncc2cc(-c3c(Cl)c(OC)cc(OC)c3Cl)nc(NC3CC(F)(F)C3)c2n1` [Example 452, N-((3R,4S)-4-((6-(2,6-dichloro-3,5-di-methoxyphenyl)-8-((3,3-difluorocyclo-butyl)amino)pyrido[3,4-d]pyrimidin-2-yl)amino)tetrahydrofuran-3-yl) acrylamide]: 42.2 nM, 53.3 nM and 20.3 nM.
As for `C=CC(=O)N[C@H]1COC[C@H]1Nc1ncc2cc(-c3c(F)c(OC)cc(OC)c3F)nc(-c3cnn(C)c3)c2n1` [Example 637, N-((3R,4S)-4-((6-(2,6-difluoro-3,5-dimethoxyphenyl)-8-(1-methyl-1H-py-razol-4-yl)pyrido[3,4-d]pyrimidin-2-yl)amino)tetrahydrofuran-3-yl)acryl-amide], the IC50 in assay [1] turned out to be 4.2 nM; in assay [2], 17.3 nM. In assay [2], this molecule registered an EC50 of 10.1 nM.
The matching figures for `C=CC(=O)N[C@H]1COC[C@H]1Nc1ncc2cc(-c3c(F)c(OC)cc(OC)c3F)nc(N3CC4CC(C3)O4)c2n1` [Example 769, N-((3R,4S)-4-((8-(6-oxa-3-azabicyclo[3.1.1]heptan-3-yl)-6-(2,6-difluoro-3,5-dimethoxy-phenyl)pyrido[3,4-d]pyrimidin-2-yl)amino)tetrahydrofuran-3-yl)acrylamide]: 3.7 nM, 10 nM and 8.4 nM.
As to `C=CC(=O)N[C@H]1COC[C@H]1Nc1ncc2cc(-c3cc(OC)cc(OC)c3Cl)nc(-c3cnn(C)c3)c2n1` [Example 761, N-((3R,4S)-4-((6-(2-chloro-3,5-dimeth-oxyphenyl)-8-(1-methyl-1H-pyrazol-4-yl)pyrido[3,4-d]pyrimidin-2-yl)ami-no)tetrahydrofuran-3-yl)acrylamide], the IC50 in assay [1] is 14.3 nM. In assay [2], the IC50 was determined as 51.8 nM and the EC50 was 20.7 nM.
Consider `C=CC(=O)N[C@H]1COC[C@H]1Nc1ncc2cc(-c3c(Cl)c(OC)cc(OC)c3Cl)nc(Cl)c2n1` [Example 753, N-((3R,4S)-4-((8-chloro-6-(2,6-di-chloro-3,5-dimethoxyphenyl)py-rido[3,4-d]pyrimidin-2-yl)amino)tetrahydro-furan-3-yl)acrylamide], for which the IC50 turned out to be 19 nM in assay [1] and 212 nM in assay [2]. This molecule displayed an EC50 in assay [2] of 130 nM.
As for `C=CC(=O)Nc1cn(C)nc1Nc1ncc2cc(-c3c(Cl)c(OC)cc(OC)c3Cl)nc(NCC3CC3)c2n1` [Example 76, N-(3-((8-((cyclopropylmethyl)amino)-6-(2,6-dichloro-3,5-dimethoxyphenyl)pyrido[3,4-d]pyrimidin-2-yl)amino)-1-methyl-1H-pyrazol-4-yl)acrylamide], the half-inhibitory concentration (IC50) in assay [1] is 24 nM. Besides, in assay [2], the IC50 was determined as 62.6 nM and a half-maximal response (EC50) required 23.8 nM.
For `C=CC(=O)Nc1cn(C)nc1Nc1ncc2cc(-c3c(Cl)c(OC)cc(OC)c3Cl)ncc2n1` [Example 64, N-(3-((6-(2,6-dichloro-3,5-dimethoxyphenyl)pyrido[3,4-d]pyrimidin-2-yl)amino)-1-methyl-1H-pyrazol-4-yl) acrylamide], in that order: 53.3 nM, 268 nM and 54.2 nM.
The matching figures for `C=CC(=O)N[C@H]1COC[C@H]1Nc1ncc2cc(-c3c(Cl)c(OC)cc(OC)c3Cl)nc(NCC(F)(F)F)c2n1` [Example 435, N-((3R,4S)-4-((6-(2,6-dichloro-3,5-di-methoxyphenyl)-8-((2,2,2-trifluoroeth-yl)amino)pyrido[3,4-d]pyrimidin-2-yl)amino)tetrahydrofuran-3-yl)acryl-amide]: 67 nM, 148 nM and 80 nM.
Consider `C=CC(=O)N[C@H]1COC[C@H]1Nc1ncc2cc(-c3c(Cl)c(OC)cc(OC)c3Cl)nc(N3CC4CC3CO4)c2n1` (stereo partly drawn) [Example 763, N-((3R,4S)-4-((8-(2-oxa-5-azabicyclo[2.2.1]heptan-5-yl)-6-(2,6-dichloro-3,5-dimethoxyphenyl)py-rido[3,4-d]pyrimidin-2-yl)a-mino)tetrahydrofuran-3-yl)acrylamide], for which the IC50 in assay [1] turned out to be 7.9 nM. In assay [2], this molecule registered an IC50 of 11.1 nM and an EC50 of 7.8 nM.
On to `C=CC(=O)Nc1cccc(C)c1Nc1cc2c(=O)oc(-c3c(Cl)c(OC)cc(OC)c3Cl)cc2cn1` [Example 7, N-(2-((3-(2,6-dichloro-3,5-dimethoxyphenyl)-1-oxo-1 H-pyrano[4,3-c]pyridin-7-yl)amino)-3-methylphenyl) acrylamide], for which, in assay [1], the IC50 turned out to be 28.9 nM. In assay [2], this molecule came in with an IC50 above 10000 nM and an EC50 above 10000 nM.
On to `C=CC(=O)N[C@H]1COC[C@H]1Nc1ncc2cc(-c3c(Cl)c(OC)cc(OC)c3Cl)nc(NCc3cnn(C)c3)c2n1` [Example 459, N-((3R,4S)-4-((6-(2,6-dichloro-3,5-di-methoxyphenyl)-8-(((1-methyl-1H-pyrazol-4-yl)methyl)amino)pyrido[3,4-d]pyrimidin-2-yl)amino)tetrahydro-furan-3-yl)acrylamide], for which the IC50 in assay [1] was determined as 17.3 nM; in assay [2], 58 nM. The molecule also returned an EC50 in assay [2] of 23.8 nM.
For `C=CC(=O)N[C@H]1COC[C@H]1Nc1ncc2cc(-c3cc(OC)cc(OC)c3Cl)nc(NCC3CC3)c2n1` [Example 475, N-((3R,4S)-4-((6-(2-chloro-3,5-dimeth-oxyphenyl)-8-((cyclopropylmethyl)a-mino)pyrido[3,4-d]pyrimidin-2-yl)a-mino)tetrahydrofuran-3-yl)acrylamide], in that order: 62 nM, 678 nM and 132 nM.
Consider `C=CC(=O)N[C@H]1COC[C@H]1Nc1ncc2cc(-c3c(Cl)c(OC)cc(OC)c3Cl)nc(N3CC(C)(OC)C3)c2n1` [Example 665, N-((3R,4S)-4-((6-(2,6-dichloro-3,5-di-methoxyphenyl)-8-(3-methoxy-3-methylazetidin-1-yl)pyrido[3,4-d]py-rimidin-2-yl)amino)tetrahydrofuran-3-yl)acrylamide], for which the IC50 in assay [1] amounted to 5.7 nM. Moreover, in assay [2], half-maximal inhibition (IC50) was put at 11.8 nM and the midpoint of the response, the EC50, lay at 9.9 nM.
The matching figures for `C=CC(=O)N[C@H]1COC[C@H]1Nc1cc2c(NC)nc(-c3c(Cl)c(OC)cc(OC)c3Cl)nc2cn1` [Example 752, N-((3R,4S)-4-((2-(2,6-dichloro-3,5-dimethoxyphenyl)-4-(methylamino)pyrido [3,4-d]pyrimidin-6-yl)amino)tetrahydro-furan-3-yl)acrylamide]: 991 nM, 2630 nM and 1710 nM.
